Data from the NIST ThermoML archive (doi:10.1021/acs.jced.6b00470).
Numbers after ± are expanded uncertainties.

Experiments:
[1] = refractive index (other wavelength) (dimensionless); details: 100 kPa, Liquid, Standard Abbe refractometry
[2] = Liquid; for mass density / viscosity: 101.33 kPa; for mass density: Vibrating tube method; for viscosity: Vibrating wire viscometry; for vapor or sublimation pressure: Ebulliometric method (Recirculating still)

COC(=O)c1ccc(C(C)(C)C)cc1 [methyl 4-tert-butylbenzoate]
refractive index, [1]
Details	Wavelength=404.7 nm	Wavelength=435.8 nm	Wavelength=486.1 nm	Wavelength=546.1 nm	Wavelength=587.6 nm	Wavelength=589.3 nm	Wavelength=632.8 nm	Wavelength=644 nm	Wavelength=706.5 nm
293.15 K	1.53993 ± 0.00056	1.53137 ± 0.00054	1.52182 ± 0.00052	1.51423 ± 0.0005	1.51053 ± 0.0005	1.51039 ± 0.0005	1.50735 ± 0.0005	1.50663 ± 0.0005	1.50334 ± 0.00049
298.15 K	1.53745 ± 0.00056	1.52893 ± 0.00054	1.51944 ± 0.00051	1.51188 ± 0.0005	1.5082 ± 0.0005	1.50807 ± 0.00049	1.50504 ± 0.0005	1.50433 ± 0.0005	1.50105 ± 0.00049
303.15 K	1.5352 ± 0.00056	1.52672 ± 0.00054	1.51725 ± 0.00051	1.50975 ± 0.0005	1.50608 ± 0.00049	1.50595 ± 0.0005	1.50293 ± 0.0005	1.50222 ± 0.0005	1.49897 ± 0.00049
308.15 K	1.53292 ± 0.00056	1.52448 ± 0.00054	1.51505 ± 0.00051	1.50756 ± 0.0005	1.50382 ± 0.00051	1.50368 ± 0.00049	1.50107 ± 0.0005	1.50004 ± 0.0005	1.49686 ± 0.00049
313.15 K	1.5307 ± 0.00056	1.52231 ± 0.00054	1.5129 ± 0.00051	1.50548 ± 0.0005	1.50185 ± 0.00049	1.50172 ± 0.0005	1.49872 ± 0.0005	1.49802 ± 0.0005	1.49479 ± 0.00049
318.15 K	1.52841 ± 0.00056	1.52004 ± 0.00054	1.5107 ± 0.00051	1.50329 ± 0.0005	1.4997 ± 0.0005	1.49957 ± 0.0005	1.49659 ± 0.0005	1.49589 ± 0.0005	1.49268 ± 0.00049
323.15 K	1.52614 ± 0.00056	1.5178 ± 0.0005	1.50849 ± 0.00051	1.50112 ± 0.0005	1.49755 ± 0.0005	1.49742 ± 0.0005	1.49445 ± 0.0005	1.49375 ± 0.0005	1.49056 ± 0.00049
328.15 K	1.52383 ± 0.00056	1.51554 ± 0.00053	1.50627 ± 0.00051	1.49894 ± 0.0005	1.49537 ± 0.0005	1.49525 ± 0.0005	1.49225 ± 0.0005	1.49161 ± 0.00049	1.48842 ± 0.00049
333.15 K	1.52158 ± 0.00056	1.51332 ± 0.00053	1.50407 ± 0.00051	1.49678 ± 0.0005	1.49326 ± 0.00049	1.49314 ± 0.0005	1.4902 ± 0.0005	1.4895 ± 0.0005	1.48634 ± 0.00049
338.15 K	1.51926 ± 0.00056	1.51104 ± 0.00053	1.50186 ± 0.00051	1.4946 ± 0.0005	1.49108 ± 0.0005	1.49096 ± 0.0005	1.48801 ± 0.0005	1.48735 ± 0.0005	1.48419 ± 0.00049
343.15 K	1.51699 ± 0.00056	1.50881 ± 0.00053	1.49967 ± 0.00051	1.49246 ± 0.0005	1.48895 ± 0.0005	1.48883 ± 0.0005	1.48591 ± 0.0005	1.48523 ± 0.0005	1.48208 ± 0.00049
348.15 K	1.5147 ± 0.00056	1.50655 ± 0.00053	1.49745 ± 0.00051	1.49026 ± 0.0005	1.48678 ± 0.0005	1.48667 ± 0.0005	1.48376 ± 0.0005	1.48309 ± 0.0005	1.47995 ± 0.00049
353.15 K	1.51239 ± 0.00056	1.50427 ± 0.00053	1.49523 ± 0.00051	1.48807 ± 0.0005	1.48461 ± 0.0005	1.48449 ± 0.0005	1.48162 ± 0.0005	1.48094 ± 0.0005	1.47781 ± 0.00049

[2]
Details	mass density [kg/m3]	vapor or sublimation pressure [kPa]	viscosity [mPa·s]
293.15 K	1008.55 ± 1.5	–	6.867 ± 0.36
298.15 K	1004.06 ± 1.5	–	5.867 ± 0.35
303.15 K	999.54 ± 1.5	–	5.013 ± 0.34
308.15 K	994.01 ± 1.5	–	4.291 ± 0.33
313.15 K	989.09 ± 1.5	–	3.687 ± 0.32
318.15 K	983.89 ± 1.5	–	3.188 ± 0.31
323.15 K	979.29 ± 1.5	–	2.781 ± 0.31
328.15 K	974.01 ± 1.5	–	2.451 ± 0.31
333.15 K	969.29 ± 1.5	–	2.185 ± 0.3
338.15 K	964.47 ± 1.5	–	1.969 ± 0.3
343.15 K	959.5 ± 1.5	–	1.79 ± 0.3
348.15 K	954.38 ± 1.5	–	1.634 ± 0.3
353.15 K	948.71 ± 1.5	–	1.487 ± 0.3
398.3 K	–	1.21 ± 0.41	–
408.4 K	–	1.89 ± 0.41	–
411.3 K	–	2.13 ± 0.41	–
421.3 K	–	3.19 ± 0.42	–
430.4 K	–	4.51 ± 0.43	–
434.9 K	–	5.32 ± 0.45	–
440.6 K	–	6.53 ± 0.46	–
446.1 K	–	7.93 ± 0.48	–
448.2 K	–	8.53 ± 0.51	–
452.4 K	–	9.87 ± 0.52	–
454.3 K	–	10.53 ± 0.54	–
457.2 K	–	11.6 ± 0.56	–
459.7 K	–	12.61 ± 0.58	–
462.6 K	–	13.87 ± 0.6	–
464.3 K	–	14.67 ± 0.63	–
466.3 K	–	15.67 ± 0.66	–
467.2 K	–	16.13 ± 0.66	–
470.7 K	–	18 ± 0.69	–
473.6 K	–	19.73 ± 0.73	–
475.1 K	–	20.67 ± 0.77	–
477.9 K	–	22.53 ± 0.8	–
480.1 K	–	24.13 ± 0.84	–
482.4 K	–	25.87 ± 0.88	–
483.3 K	–	26.53 ± 0.87	–
484.9 K	–	27.88 ± 0.93	–
486.4 K	–	29.13 ± 0.93	–
487.9 K	–	30.4 ± 0.97	–
489.5 K	–	31.86 ± 1	–
490.6 K	–	32.93 ± 1	–
492.4 K	–	34.66 ± 1	–
